Here are results for two compounds from US7754913B2, “Synthesis of isotopically labeled alpha-keto acids and esters” (Cambridge Isotope Laboratories, Inc., priority 2006, dated 2010).

Data set [1] in a line: Concentration studies: stability of pyruvic acid solutions in water at higher concentrations. It is filed as physicochemical. To be noted: each of the concentrations of Table 2; light for 6-weeks; about 22° C. to about 26° C. Here is the method: Each of these commercial solutions were subjected to light for 6-weeks at temperatures ranging from about 22° C. to about 26° C. At each of the concentrations listed below, it was discovered that the pyruvic acid solutions were stable.

For data set [2] the following is noted: cited from earlier work.
Data set [3] in a line: Shelf storage stability of [1-13C] pyruvic acid in water, 1H and 13C NMR spectra compared. In kind it is physicochemical. To be noted: 0.025M in water; for Storage stability, Duration 12 weeks / Storage stability, Duration 17 weeks: NMR; for Shelf stability (NMR spectra unchanged): each of the samples, all conditions of Table 1. Here is the method:
Samples of isotopically labeled [1-^13C] pyruvic acid, having Formula VI and synthesized as discussed immediately below, were subjected to various conditions as depicted in Table 1, in order to establish the compound's shelf storage stability.
The resulting [1-^13C] pyruvic acid was tested as follows in Table 1:
^1H and ^13C NMR spectra of the distilled [1-^13C] pyruvic acid in water (0.025M) were acquired at the onset of the study and prior to exposing the samples to the various conditions specified in Table 1. ^1H and ^13C NMR spectra were again acquired for each of the samples after being exposed to the aforementioned conditions on a weekly basis for 12-weeks. The spectra acquired after exposure were compared visually and appeared to remain unchanged as compared with the spectra acquired prior to exposure, i.e. the spectra were as expected for [1-^13C] pyruvic acid in water. As such, it was concluded that each of the samples were shelf stable. Similarly, ^1H and ^13C NMR spectra acquired after 17-weeks of exposure remained unchanged as compared with the spectra acquired prior to exposure.

Where [4] appears, read: Sample 3, Room temperature (about 22° C. to about 26° C.), Dark.
The mark [5] stands for this setting: Sample 4, Room temperature (about 22° C. to about 26° C.), Light.

`CC(=O)C(=O)O` [Pyruvic acid, 2-oxopropanoic acid, reference compound]: the “Stability of solutions in water” value in data set [1] is given as “stable”. Besides, the Solubility in water result in data set [2] is reported as “soluble”.
`CC(=O)[13C](=O)O` [[1-^13C] pyruvic acid]: the “Storage stability, Duration 12 weeks” value in data set [3] (Sample 1, −10° C., Dark) is “Stable”; in data set [3] (Sample 2, 4° C., Dark), “Stable”; in data set [3] (setting [4]), “Stable”; in data set [3] (setting [5]) it was “Stable”. Besides, the “Storage stability, Duration 17 weeks” value in data set [3] (Sample 1, −10° C., Dark) was “Stable”; in data set [3] (Sample 2, 4° C., Dark), “Stable”; in data set [3] (setting [4]) it was “Stable”; in data set [3] (setting [5]) it was “Stable”. Also, the “Shelf stability (NMR spectra unchanged)” value in data set [3] (after 17-weeks) and in data set [3] (weekly for 12-weeks) was “shelf stable” each time.
